Read-outs that look alike come from different tables or passages of the source.
How the values were obtained:
hH4R [1] = biological target: T1, hH4R (Homo sapiens, UniProt Q9H3N8); assay: cell-based; set-up: gene HRH4; SF-hH4R-His6: cleavable influenza hemagglutinin signal peptide and FLAG, hexahistidine tag; stably expressed in HEK293T with CRE-luc2P reporter; conditions: HEK293T-CRE-Luc stably expressing SF-H4R-His6, read-out: hH4R / α
mH4R [2] = biological target: T2, mH4R (Mus musculus, UniProt Q91ZY2); assay: cell-based; set-up: gene Hrh4; SF-mH4R-His6: cleavable influenza hemagglutinin signal peptide and FLAG, hexahistidine tag; GTPgammaS: Sf9 membranes co-expressing Galphai2 and Gbeta1gamma2; species or system HEK293T-CRE-Luc stably expressing SF-H4R-His6
T2 sequence (Q91ZY2 1-391): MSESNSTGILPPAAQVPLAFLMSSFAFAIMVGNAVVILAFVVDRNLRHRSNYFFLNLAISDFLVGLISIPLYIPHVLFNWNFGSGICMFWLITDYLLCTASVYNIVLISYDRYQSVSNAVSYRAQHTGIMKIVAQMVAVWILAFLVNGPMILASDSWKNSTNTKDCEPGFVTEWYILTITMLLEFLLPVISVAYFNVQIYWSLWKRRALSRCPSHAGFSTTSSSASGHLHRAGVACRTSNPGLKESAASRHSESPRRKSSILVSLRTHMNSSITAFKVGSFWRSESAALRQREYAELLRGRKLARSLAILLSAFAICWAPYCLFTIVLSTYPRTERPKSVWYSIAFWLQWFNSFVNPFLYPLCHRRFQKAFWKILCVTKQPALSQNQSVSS

rH4R [3] = biological target: T3, rH4R (Rattus norvegicus, UniProt Q91ZY1); assay: cell-based; set-up: gene Hrh4; SF-rH4R-His6: cleavable influenza hemagglutinin signal peptide and FLAG, hexahistidine tag; GTPgammaS: Sf9 membranes co-expressing Galphai2 and Gbeta1gamma2; species or system HEK293T; CRE-luciferase reporter gene assay, inhibition of forskolin-stimulated luminescence, agonist mode; conditions: HEK-293T, read-out: rH4R / α
rH4R [4] = biological target: T3, rH4R; assay: cell-based; set-up: gene Hrh4
rH4R [5] = biological target: T3, rH4R; assay: CRE-luciferase reporter gene assay, HEK293T; assay type: cell-based; set-up: gene Hrh4; SF-rH4R-His6: cleavable influenza hemagglutinin signal peptide and FLAG, hexahistidine tag; conditions: for rH4R / pEC50 or (pKB): 1 µM forskolin, 5 h, 37 °C, agonist mode; for EC50: read-out: rH4R / pEC50 or (pKB) (converted)
mH4R [6] = biological target: T2, mH4R; assay: CRE-luciferase reporter gene assay, HEK293T; assay type: cell-based; set-up: gene Hrh4; SF-mH4R-His6: cleavable influenza hemagglutinin signal peptide and FLAG, hexahistidine tag; conditions: for mH4R / pEC50 or (pKB): 1 µM forskolin, 5 h, 37 °C, agonist mode; for EC50: read-out: mH4R / pEC50 or (pKB) (converted)
rH4R [7] = biological target: T3, rH4R; assay: […]GTPγS binding, Sf9 membranes; assay type: biochemical; set-up: gene Hrh4; SF-rH4R-His6: cleavable influenza hemagglutinin signal peptide and FLAG, hexahistidine tag; GTPgammaS: Sf9 membranes co-expressing Galphai2 and Gbeta1gamma2; conditions: read-out: rH4R / pEC50 or (pKB) (converted)
rH4R [8] = biological target: T3, rH4R; assay: CRE-luciferase reporter gene assay, HEK293T; assay type: cell-based; set-up: gene Hrh4; SF-rH4R-His6: cleavable influenza hemagglutinin signal peptide and FLAG, hexahistidine tag; conditions: read-out: rH4R / pEC50 or (pKB) (converted)
mH4R [9] = biological target: T2, mH4R; assay: […]GTPγS binding, Sf9 membranes; assay type: biochemical; set-up: gene Hrh4; SF-mH4R-His6: cleavable influenza hemagglutinin signal peptide and FLAG, hexahistidine tag; GTPgammaS: Sf9 membranes co-expressing Galphai2 and Gbeta1gamma2; conditions: read-out: mH4R / pEC50 or (pKB) (converted)
rH4R [10] = biological target: T3, rH4R; assay: cell-based; set-up: gene Hrh4; conditions: HEK293T-CRE-Luc stably expressing SF-H4R-His6, read-out: rH4R / α
hH4R [11] = biological target: T1, hH4R; assay: cell-based; set-up: gene HRH4; SF-hH4R-His6: cleavable influenza hemagglutinin signal peptide and FLAG, hexahistidine tag; stably expressed in HEK293T with CRE-luc2P reporter; species or system HEK293T; CRE-luciferase reporter gene assay, inhibition of forskolin-stimulated luminescence, agonist mode; conditions: HEK-293T, read-out: hH4R / α
hH4R [12] = biological target: T1, hH4R; assay: cell-based; set-up: gene HRH4
mH4R [13] = biological target: T2, mH4R; assay: cell-based; set-up: gene Hrh4; conditions: HEK293T-CRE-Luc stably expressing SF-H4R-His6, read-out: mH4R / α / −0.23±0.03
[14] = HEK293T-CRE-Luc stably expressing SF-H4R-His6, read-out: mH4R / α
[15] = HEK293T-CRE-Luc stably expressing SF-H4R-His6, read-out: rH4R / α
[16] = HEK293T-CRE-Luc stably expressing SF-H4R-His6, read-out: hH4R / α / −0.32±0.04 / −0.39±0.03

T3 sequence (Q91ZY1 whole entry): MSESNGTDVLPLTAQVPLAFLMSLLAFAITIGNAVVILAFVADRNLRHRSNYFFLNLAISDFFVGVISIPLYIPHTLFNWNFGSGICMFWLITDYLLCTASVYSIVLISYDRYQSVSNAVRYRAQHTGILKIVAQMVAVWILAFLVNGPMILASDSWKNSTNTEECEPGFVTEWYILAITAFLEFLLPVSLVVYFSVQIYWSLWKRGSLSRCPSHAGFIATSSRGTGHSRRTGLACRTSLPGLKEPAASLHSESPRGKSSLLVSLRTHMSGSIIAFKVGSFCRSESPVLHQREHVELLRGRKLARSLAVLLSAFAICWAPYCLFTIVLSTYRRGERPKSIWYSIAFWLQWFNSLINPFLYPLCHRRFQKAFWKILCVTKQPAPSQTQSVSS
T1 sequence (Q9H3N8 whole entry): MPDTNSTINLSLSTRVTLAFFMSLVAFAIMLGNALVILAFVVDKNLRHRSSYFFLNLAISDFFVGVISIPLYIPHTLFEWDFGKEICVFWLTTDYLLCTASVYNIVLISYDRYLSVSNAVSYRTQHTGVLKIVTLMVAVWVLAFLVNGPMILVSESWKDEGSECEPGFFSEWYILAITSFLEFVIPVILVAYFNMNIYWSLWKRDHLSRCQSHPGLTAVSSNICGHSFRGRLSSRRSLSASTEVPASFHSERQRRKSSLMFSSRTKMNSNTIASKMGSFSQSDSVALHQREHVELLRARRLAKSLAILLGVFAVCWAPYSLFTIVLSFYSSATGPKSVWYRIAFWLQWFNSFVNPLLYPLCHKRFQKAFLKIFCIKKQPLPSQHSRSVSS

Row | Structure (SMILES) | Emax (hH4R [1]) | Emax (mH4R [2]; [14]) | Emax (rH4R [4]; [15]) | EC50 (rH4R [5]) | EC50 (mH4R [6]) | further results
1 | N#CNC(=NCCCCc1cnc[nH]1)NCCSc1ccccc1 [UR-PI376 (14)] | 102 ± 2% | 51 ± 5% |  |  |  | Emax (rH4R [3]): 8 ± 10%
2 | NCCc1c[nH]cn1 [compound 1, Histamine] | 100% | 100% | 100% |  |  | 
3 | C[C@@H](N)Cc1cnc[nH]1 [compound 2, (R)-α-Methylhistamine] | 103 ± 4% | 98 ± 1% | 96 ± 2% |  |  | rH4R / pEC50 or (pKB) (rH4R [5]): 5.60±0.12; mH4R / pEC50 or (pKB) (mH4R [6]): 6.16±0.07
4 | C[C@H](N)Cc1c[nH]cn1 [compound 3, (S)-α-Methylhistamine] | 90 ± 4% | 82 ± 7% | 69 ± 3% |  |  | rH4R / pEC50 or (pKB) (rH4R [5]): 4.26±0.04; mH4R / pEC50 or (pKB) (mH4R [6]): 4.72±0.16
5 | CNCCc1cnc[nH]1 [compound 4, N^α-Methylhistamine] | 98 ± 3% | 97 ± 2% | 98 ± 4% | 589 nM | 575 nM | 
6 | Cc1nc[nH]c1CCN [compound 5, 5(4)-Methylhistamine] | 97 ± 3% | 97 ± 2% | 100 ± 3% | 933 nM | 135 nM | 
7 | c1nc(CC2CCNCC2)c[nH]1 [compound 6, Immepip] | 98 ± 2% | 95 ± 3% | 93 ± 5% | 67.6 nM | 141 nM | 
8 | c1cc(Cc2cnc[nH]2)ccn1 [compound 7, Immethridine] | 65 ± 2% | 87 ± 2% | 94 ± 1% | 1580 nM | 1120 nM | 
9 | N=C(N)SCCc1cnc[nH]1 [compound 8, Imetit] | 94 ± 2% | 96 ± 2% | 95 ± 1% | 61.7 nM | 38.9 nM | 
10 | NC(=NCc1ccc(Cl)cc1)SCCCc1cnc[nH]1 [compound 9, Clobenpropit] | 97 ± 3% | 55 ± 5% | 37 ± 3% | 158 nM | 186 nM | Kb (rH4R [7]): 501 nM
11 | c1ccc(COCCCc2c[nH]cn2)cc1 [compound 11, Proxyfan] | 68 ± 2% | 88 ± 4% |  | 2140 nM | 794 nM | Emax (rH4R [4]; HEK293T-CRE-Luc stably expressing SF-H4R-His6, read-out: rH4R / α / −0.01±0.06): 76 ± 3%
12 | N#C/N=C(/NCCCCc1c[nH]cn1)NCCSc1ccccc1 [compound 14, 2-cyano-1-[4-(1H-imidazol-4-yl)butyl]-3-[(2-phenylthio)ethyl]guanidine] |  |  |  |  | 245 nM | Kb (rH4R [8]): 7080 nM; Kb (mH4R [9]): 794 nM
13 | CN1CCN(c2cc(NCc3c(Cl)cccc3Cl)nc(N)n2)CC1 [compound 16, ST-1006] | 91 ± 1% | 37 ± 4% |  |  |  | Emax (rH4R [10]): -55 ± 12%
14 | CN1CCN(C2=Nc3cc(Cl)ccc3Nc3ccccc32)CC1 [compound 17, Clozapine] | 130 ± 5% |  |  |  |  | 
15 | c1ncc(CCCC2CCNCC2)[nH]1 [compound 18, VUF 5681] |  | 42 ± 2% |  |  | 6310 nM | Emax (hH4R [11]): 9%
16 | S=C(NC1CCCCC1)N1CCC(c2c[nH]cn2)CC1 [compound 20, Thioperamide] |  |  |  |  |  | Emax (hH4R [12]; HEK293T-CRE-Luc stably expressing SF-H4R-His6, read-out: hH4R / α / −0.31±0.06): -32 ± 4%; Emax (mH4R [13]): -44 ± 2%; Emax (rH4R [3]): -20 ± 2%
17 | CN1CCN(c2cc(N3Cc4ccccc4C3)nc(N)n2)CC1 [compound 21, ST-1012] |  |  |  | 7.59 nM | 32.4 nM | Emax (hH4R [12]; HEK293T-CRE-Luc stably expressing SF-H4R-His6, read-out: hH4R / α / −0.31±0.06 / −0.32±0.04): -39 ± 3%; Emax (rH4R [4]; HEK293T-CRE-Luc stably expressing SF-H4R-His6, read-out: rH4R / α / −0.20±0.02): 24 ± 7%; Emax (mH4R [2]; HEK293T-CRE-Luc stably expressing SF-H4R-His6, read-out: mH4R / α / −0.23±0.03 / −0.44±0.02): 24 ± 5%
18 | Nc1nc2c(c(N3CC[C@@H](N)C3)n1)CCCc1ccccc1-2 [compound 22, A 943931] |  |  |  |  |  | Emax (hH4R [12]; [16]): -63 ± 7%; Emax (rH4R [3]): -6%
19 | Nc1nc2c(c(N3CCNCC3)n1)CCC1=C2[C@H]2CCCC[C@H]2O1 [compound 23, A 987306] |  |  |  |  |  | Emax (hH4R [12]; [16]): -62 ± 7%; Emax (rH4R [3]): -8%

From publication PMC3759464 (PLoS ONE, 2013)
